Experimental data reported in patent publication US20210401987A1, “METHODS AND COMPOSITIONS FOR TREATING INFLAMMATORY AND FIBROTIC PULMONARY DISORDERS” (University of Houston System, priority 2020, published 2021).

What was measured:
[1] = biological target: STAT3 (Homo sapiens, UniProt P40763); conditions: cited from earlier work
[2] = test system: ERBB2; conditions: cited from earlier work
[3] = test system: human airway microvasculature endothelial cells; assay: Endothelial cell activation assessed by expression of Vcam1 (CD106); type: cell-based; conditions: IL-13 challenge of human lung endothelial cells
Description: Given the robust inflammatory response triggered by xenografts of COPD clone libraries, the inventors asked if this inflammatory activity was a function of one or more of the constituent clone types. Using pathway enrichment analysis algorithms for the gene expression profiles of the four clone types, the multiple inflammatory pathways highlighted in clones of Cluster 4 was striking including Antigen Presentation, Interferon Signaling, Graft-vs-Host responses, and Dendritic Cell Maturation among others, and their relative absence from clones of Clusters 1, 2, and 3 (FIG. 5A; FIG. 12A). The inventors tested media conditioned by clones of Clusters 1-4 for their ability to trigger phase I and II activation of human airway microvasculature endothelial cells, an essential step in leukocyte recruitment (Filippi, 2016). […] In this same assay media conditioned by Cluster 2 (GCM) or Cluster 3 (SCM) clones, respectively, yielded 4- and 10-fold inductions of VCAM1, and while media from Cluster 4 (iSCM) clones induced Vcam1 by 60-fold (FIG. 12B).

STAT3, sequence (P40763 whole entry): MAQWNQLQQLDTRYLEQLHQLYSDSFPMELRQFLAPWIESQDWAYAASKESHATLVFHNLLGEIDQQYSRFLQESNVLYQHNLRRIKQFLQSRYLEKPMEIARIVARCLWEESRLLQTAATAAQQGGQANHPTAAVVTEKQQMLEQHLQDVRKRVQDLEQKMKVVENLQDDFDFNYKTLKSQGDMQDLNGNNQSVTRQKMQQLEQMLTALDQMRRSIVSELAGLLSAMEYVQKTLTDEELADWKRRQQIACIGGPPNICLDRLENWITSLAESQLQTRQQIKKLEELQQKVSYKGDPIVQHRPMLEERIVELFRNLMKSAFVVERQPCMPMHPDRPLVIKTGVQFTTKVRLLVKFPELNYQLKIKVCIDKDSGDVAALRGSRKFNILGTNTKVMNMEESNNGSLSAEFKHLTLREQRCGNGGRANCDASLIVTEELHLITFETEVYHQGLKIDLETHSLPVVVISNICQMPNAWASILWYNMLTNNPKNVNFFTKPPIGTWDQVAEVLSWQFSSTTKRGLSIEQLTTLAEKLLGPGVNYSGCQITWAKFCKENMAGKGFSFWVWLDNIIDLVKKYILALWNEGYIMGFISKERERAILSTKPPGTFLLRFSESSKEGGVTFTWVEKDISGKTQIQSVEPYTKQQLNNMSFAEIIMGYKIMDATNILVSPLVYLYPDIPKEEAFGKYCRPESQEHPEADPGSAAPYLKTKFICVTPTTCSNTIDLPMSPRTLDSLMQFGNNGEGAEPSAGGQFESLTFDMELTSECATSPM

Compound: O=[N+]([O-])c1ccc2c(c1)S(=O)(=O)C=C2 [Stattic]
- IC50 ([1]; cell-free assays, read-out: IC50 of STAT3 activation and nuclear translocation): 5.1 µM
- selectivity over STAT1 [1]: highly selectivity over STAT1

Compound: C=CC(=O)Nc1cccc(Sc2nc(Nc3ccc(N4CCN(C)CC4)cc3)ncc2Cl)c1 [WZ8040]
- inhibition of ERBB2 phosphorylation [2]: does not inhibit

Compound: IL-13: Human IL-13 Recombinant Protein
- induction of Vcam1 [3]: 30 fold
